{"source": "ChEMBL document CHEMBL1201862", "about": "“PubChem BioAssay data set” (2004)", "assay_in_all_cases": "NCI tumour cell line growth inhibition, 48 h", "key": {"[1]": {"tested_on": "786-0"}, "[2]": {"tested_on": "A498"}, "[3]": {"tested_on": "A549"}, "[4]": {"tested_on": "ACHN"}, "[5]": {"tested_on": "BT-549"}, "[6]": {"tested_on": "CAKI-1"}, "[7]": {"tested_on": "CCRF-CEM"}, "[8]": {"tested_on": "COLO 205"}, "[9]": {"tested_on": "DU-145"}, "[10]": {"tested_on": "EKVX"}, "[11]": {"tested_on": "HCC 2998"}, "[12]": {"tested_on": "HCT-116"}, "[13]": {"tested_on": "HCT-15"}, "[14]": {"tested_on": "HL-60"}, "[15]": {"tested_on": "HOP-62"}, "[16]": {"tested_on": "HT-29"}, "[17]": {"tested_on": "Hs-578T"}, "[18]": {"tested_on": "IGROV-1"}, "[19]": {"tested_on": "K562"}, "[20]": {"tested_on": "KM12"}, "[21]": {"tested_on": "LOX IMVI"}, "[22]": {"tested_on": "M14"}, "[23]": {"tested_on": "MCF7"}, "[24]": {"tested_on": "MDA-MB-231"}, "[25]": {"tested_on": "MDA-N"}, "[26]": {"tested_on": "MOLT-4"}, "[27]": {"tested_on": "Malme-3M"}, "[28]": {"tested_on": "NCI-H226"}, "[29]": {"tested_on": "NCI-H23"}, "[30]": {"tested_on": "NCI-H460"}, "[31]": {"tested_on": "NCI/ADR-RES"}, "[32]": {"tested_on": "OVCAR-3"}, "[33]": {"tested_on": "OVCAR-4"}, "[34]": {"tested_on": "OVCAR-5"}, "[35]": {"tested_on": "OVCAR-8"}, "[36]": {"tested_on": "PC-3"}, "[37]": {"tested_on": "RPMI-8226"}, "[38]": {"tested_on": "RXF 393"}, "[39]": {"tested_on": "SF-268"}, "[40]": {"tested_on": "SF-295"}, "[41]": {"tested_on": "SF-539"}, "[42]": {"tested_on": "SK-MEL-28"}, "[43]": {"tested_on": "SK-MEL-5"}, "[44]": {"tested_on": "SK-OV-3"}, "[45]": {"tested_on": "SN12C"}, "[46]": {"tested_on": "SNB-19"}, "[47]": {"tested_on": "SNB-75"}, "[48]": {"tested_on": "SR"}, "[49]": {"tested_on": "SW-620"}, "[50]": {"tested_on": "T47D"}, "[51]": {"tested_on": "TK-10"}, "[52]": {"tested_on": "U-251"}, "[53]": {"tested_on": "UACC-257"}, "[54]": {"tested_on": "UACC-62"}, "[55]": {"tested_on": "UO-31"}}, "note": "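Method: 48-hour compound exposure of cells in 96-well plates, five concentrations, linear interpolation of endpoints. Here, GI50 denotes the concentration required for 50% inhibition of growth.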 Calls of active or inactive are those of the source. Rule as the data show it: active = GI50 up to about 1.1 µM and inactive = higher."}
{"smiles": "COc1ccccc1N1C(=O)C2C3c4ccccc4C(OC(C)=O)(c4ccccc43)C2C1=O", "note": "(stereo not given)", "values": [{"measurement": "GI50", "setting": "[1]", "result": "39.3 µM (inactive)"}, {"measurement": "GI50", "setting": "[2]", "result": "> 100 µM (inactive)"}, {"measurement": "GI50", "setting": "[3]", "result": "> 100 µM (inactive)"}, {"measurement": "GI50", "setting": "[4]", "result": "> 100 µM (inactive)"}, {"measurement": "GI50", "setting": "[5]", "result": "49.9 µM (inactive)"}, {"measurement": "GI50", "setting": "[6]", "result": "> 100 µM (inactive)"}, {"measurement": "GI50", "setting": "[7]", "result": "> 100 µM (inactive)"}, {"measurement": "GI50", "setting": "[8]", "result": "> 100 µM (inactive)"}, {"measurement": "GI50", "setting": "[9]", "result": "> 100 µM (inactive)"}, {"measurement": "GI50", "setting": "[10]", "result": "> 100 µM (inactive)"}, {"measurement": "GI50", "setting": "[11]", "result": "> 100 µM (inactive)"}, {"measurement": "GI50", "setting": "[12]", "result": "57.3 µM (inactive)"}, {"measurement": "GI50", "setting": "[13]", "result": "> 100", "unit": "µM"}, {"measurement": "GI50", "setting": "[14]", "result": "> 100 µM (inactive)"}, {"measurement": "GI50", "setting": "[15]", "result": "97.9 µM (inactive)"}, {"measurement": "GI50", "setting": "[16]", "result": "> 100 µM (inactive)"}, {"measurement": "GI50", "setting": "[17]", "result": "14.8 µM (inactive)"}, {"measurement": "GI50", "setting": "[18]", "result": "> 100 µM (inactive)"}, {"measurement": "GI50", "setting": "[19]", "result": "> 100 µM (inactive)"}, {"measurement": "GI50", "setting": "[20]", "result": "77.4 µM (inactive)"}, {"measurement": "GI50", "setting": "[21]", "result": "> 100 µM (inactive)"}, {"measurement": "GI50", "setting": "[22]", "result": "> 100 µM (inactive)"}, {"measurement": "GI50", "setting": "[23]", "result": "72.3 µM (inactive)"}, {"measurement": "GI50", "setting": "[24]", "result": "> 100 µM (inactive)"}, {"measurement": "GI50", "setting": "[25]", "result": "> 100 µM (inactive)"}, {"measurement": "GI50", "setting": "[26]", "result": "> 100 µM (inactive)"}, {"measurement": "GI50", "setting": "[27]", "result": "33.8 µM (inactive)"}, {"measurement": "GI50", "setting": "[28]", "result": "> 100 µM (inactive)"}, {"measurement": "GI50", "setting": "[29]", "result": "> 100 µM (inactive)"}, {"measurement": "GI50", "setting": "[30]", "result": "> 100 µM (inactive)"}, {"measurement": "GI50", "setting": "[31]", "result": "> 100 µM (inactive)"}, {"measurement": "GI50", "setting": "[32]", "result": "> 100 µM (inactive)"}, {"measurement": "GI50", "setting": "[33]", "result": "30.4 µM (inactive)"}, {"measurement": "GI50", "setting": "[34]", "result": "> 100 µM (inactive)"}, {"measurement": "GI50", "setting": "[35]", "result": "43 µM (inactive)"}, {"measurement": "GI50", "setting": "[36]", "result": "> 100 µM (inactive)"}, {"measurement": "GI50", "setting": "[37]", "result": "> 100 µM (inactive)"}, {"measurement": "GI50", "setting": "[38]", "result": "> 100 µM (inactive)"}, {"measurement": "GI50", "setting": "[39]", "result": "30.8 µM (inactive)"}, {"measurement": "GI50", "setting": "[40]", "result": "78.7 µM (inactive)"}, {"measurement": "GI50", "setting": "[41]", "result": "72.1 µM (inactive)"}, {"measurement": "GI50", "setting": "[42]", "result": "71.9 µM (inactive)"}, {"measurement": "GI50", "setting": "[43]", "result": "> 100 µM (inactive)"}, {"measurement": "GI50", "setting": "[44]", "result": "> 100 µM (inactive)"}, {"measurement": "GI50", "setting": "[45]", "result": "> 100 µM (inactive)"}, {"measurement": "GI50", "setting": "[46]", "result": "17.1 µM (inactive)"}, {"measurement": "GI50", "setting": "[47]", "result": "17.5 µM (inactive)"}, {"measurement": "GI50", "setting": "[48]", "result": "> 100 µM (inactive)"}, {"measurement": "GI50", "setting": "[49]", "result": "> 100 µM (inactive)"}, {"measurement": "GI50", "setting": "[50]", "result": "> 100 µM (inactive)"}, {"measurement": "GI50", "setting": "[51]", "result": "> 100 µM (inactive)"}, {"measurement": "GI50", "setting": "[52]", "result": "60.7 µM (inactive)"}, {"measurement": "GI50", "setting": "[53]", "result": "> 100 µM (inactive)"}, {"measurement": "GI50", "setting": "[54]", "result": "> 100 µM (inactive)"}, {"measurement": "GI50", "setting": "[55]", "result": "> 100 µM (inactive)"}]}
